# Reference: patent US4537717A
# What was measured:
# [1] = test system: Streptococcus pneumoniae Group D X66; assay type: cell-based; conditions: agar dilution; 2, 5, 17, 22 median of three tests; paired values two experiments
# toxicity test (LD50) = conditions: mouse, in vivo, iv, mice; administered intravenously
# Streptococcus Group 9960 = assay type: cell-based, Streptococcus pneumoniae; conditions: agar dilution; 2, 5, 17, 22 median of three tests; paired values two experiments
# [2] = test system: Staphylococcus aureus V41; assay type: cell-based; conditions: penicillin-resistant strain; agar dilution; 2, 5, 17, 22 median of three tests; paired values two experiments
# [3] = test system: Streptococcus pyogenes C203; assay type: cell-based; conditions: agar dilution; 2, 5, 17, 22 median of three tests; paired values two experiments
# [4] = test system: Staphylococcus epidermidis EPI2; assay type: cell-based; conditions: agar dilution; 2, 5, 17, 22 median of three tests; paired values two experiments
# [5] = test system: Micrococcus luteus ATCC 9341; assay: agar-plate disc-diffusion test; assay type: cell-based; conditions: suspended in water at 1 mg/ml; 7 mm disc; 24-48 hours at 25-37° C.
# [6] = test system: Bacillus subtilis ATCC 6633; assay: agar-plate disc-diffusion test; conditions: 7 mm disc, 24-48 hours at 25-37° C.; for Size of Zone of Inhibition (mm) B. subtilis ATCC 6633, grown on minimal nutrient agar: 1 mg/ml; for Size of Zone of Inhibition (mm) Bacillus subtilis ATCC 6633: suspended in water at 1 mg/ml
# Protocol: ^a Compounds were suspended in water at a concentration of 1 mg/ml; a
# 7 mm disc was dipped into the suspension and then placed on the agar
# surface; incubation: 24-48 hours at 25-37° C.
# ^b Grown on minimal nutrient agar
# Staphylococcus aureus = assay: in vivo activity against experimental bacterial infection (ED50); conditions: mice; two doses subcutaneously; dose protecting fifty percent of test animals
# [7] = test system: Staphylococcus epidermidis EPI1; assay type: cell-based; conditions: agar dilution; 2, 5, 17, 22 median of three tests; paired values two experiments
# [8] = test system: Staphylococcus aureus X400; assay type: cell-based; conditions: methicillin-resistant strain; agar dilution; 2, 5, 17, 22 median of three tests; paired values two experiments
# [9] = test system: Staphylococcus aureus X1.1; assay type: cell-based; conditions: agar dilution; 2, 5, 17, 22 median of three tests; paired values two experiments
# [10] = test system: Staphylococcus aureus ATCC 6738P; assay: agar-plate disc-diffusion test; assay type: cell-based; conditions: suspended in water at 1 mg/ml; 7 mm disc; 24-48 hours at 25-37° C.
# [11] = test system: Streptococcus pneumoniae Park I; assay type: cell-based; conditions: agar dilution; 2, 5, 17, 22 median of three tests; paired values two experiments
# Streptococcus pyogenes = assay: in vivo activity against experimental bacterial infection (ED50); conditions: mice, dose protecting fifty percent of test animals; for ED50 Streptococcus pyogenes Oral: two doses orally; for ED50 Streptococcus pyogenes Subcutaneous: two doses subcutaneously
Compound,MIC Streptococcus pneumoniae Group D X66 [1],LD50 (toxicity test (LD50)),MIC Streptococcus pneumoniae Group 9960 (Streptococcus Group 9960),MIC Staphylococcus aureus V41 [2],MIC Streptococcus pyogenes C203 [3],MIC Staphylococcus epidermidis EPI2 [4],Size of Zone of Inhibition (mm) Micrococcus luteus ATCC 9341 [5],"Size of Zone of Inhibition (mm) B. subtilis ATCC 6633, grown on minimal nutrient agar [6]",Size of Zone of Inhibition (mm) Bacillus subtilis ATCC 6633 [6],ED50 Staphylococcus aureus Subcutaneous (Staphylococcus aureus),MIC Staphylococcus epidermidis EPI1 [7],MIC Staphylococcus aureus X400 [8],MIC Staphylococcus aureus X1.1 [9],Size of Zone of Inhibition (mm) Staphylococcus aureus ATCC 6738P [10],MIC Streptococcus pneumoniae Park I [11],ED50 Streptococcus pyogenes Oral (Streptococcus pyogenes),ED50 Streptococcus pyogenes Subcutaneous (Streptococcus pyogenes)
CCCCCCCCC(=O)N[C@@H](Cc1c[nH]c2ccccc12)C(=O)N[C@@H](CC(N)=O)C(=O)N[C@@H](CC(=O)O)C(=O)N[C@@H]1C(=O)NCC(=O)N[C@@H](CCCN)C(=O)N[C@@H](CC(=O)O)C(=O)N[C@H](C)C(=O)N[C@@H](CC(=O)O)C(=O)NCC(=O)N[C@H](CO)C(=O)N[C@@H]([C@H](C)CC(=O)O)C(=O)N[C@@H](CC(=O)c2ccccc2N)C(=O)O[C@@H]1C [Compound 3],32 µg/mL,> 600 mg/kg,8 µg/mL,2 µg/mL,0.25 µg/mL,2 µg/mL,18 mm,27 mm,16 mm,0.5 mg/kg × 2,4 µg/mL,4 µg/mL,2 µg/mL,20 mm,2 µg/mL,–,–
CCCCCCC(=O)N[C@@H](Cc1c[nH]c2ccccc12)C(=O)N[C@@H](CC(N)=O)C(=O)N[C@@H](CC(=O)O)C(=O)N[C@@H]1C(=O)NCC(=O)N[C@@H](CCCN)C(=O)N[C@@H](CC(=O)O)C(=O)N[C@H](C)C(=O)N[C@@H](CC(=O)O)C(=O)NCC(=O)N[C@H](CO)C(=O)N[C@@H]([C@H](C)CC(=O)O)C(=O)N[C@@H](CC(=O)c2ccccc2N)C(=O)O[C@@H]1C [Compound 1],128 µg/mL,> 600 mg/kg,128 µg/mL,8 µg/mL,2 µg/mL,8 µg/mL,21 mm,16 mm,15 mm,2.65 mg/kg × 2,16 µg/mL,8 µg/mL,8 µg/mL,17 mm,8 µg/mL,–,–
CCCCCCCCCCCCCCCC(=O)N[C@@H](Cc1c[nH]c2ccccc12)C(=O)N[C@@H](CC(N)=O)C(=O)N[C@@H](CC(=O)O)C(=O)N[C@@H]1C(=O)NCC(=O)N[C@@H](CCCN)C(=O)N[C@@H](CC(=O)O)C(=O)N[C@H](C)C(=O)N[C@@H](CC(=O)O)C(=O)NCC(=O)N[C@H](CO)C(=O)N[C@@H]([C@H](C)CC(=O)O)C(=O)N[C@@H](CC(=O)c2ccccc2N)C(=O)O[C@@H]1C [Compound 10],2 µg/mL,50 mg/kg,0.25 µg/mL,1 µg/mL,1 µg/mL,2 µg/mL,17 mm,23 mm,17 mm,> 1.1 mg/kg × 2,2 µg/mL,2 µg/mL,1 µg/mL,19 mm,0.06 µg/mL,> 200 mg/kg × 2,0.18 mg/kg × 2
CCCCCCCCCCC(=O)N[C@@H](Cc1c[nH]c2ccccc12)C(=O)N[C@@H](CC(N)=O)C(=O)N[C@@H](CC(=O)O)C(=O)N[C@@H]1C(=O)NCC(=O)N[C@@H](CCCN)C(=O)N[C@@H](CC(=O)O)C(=O)N[C@H](C)C(=O)N[C@@H](CC(=O)O)C(=O)NCC(=O)N[C@H](CO)C(=O)N[C@@H]([C@H](C)CC(=O)O)C(=O)N[C@@H](CC(=O)c2ccccc2N)C(=O)O[C@@H]1C [Compound 5],2 µg/mL,> 600 mg/kg,0.5 µg/mL,0.25 µg/mL,0.125 µg/mL,0.5 µg/mL,21 mm,21 mm,19 mm,0.37 mg/kg × 2,0.5 µg/mL,0.5 µg/mL,0.25 µg/mL,19 mm,0.25 µg/mL,138 mg/kg × 2,0.13 mg/kg × 2
CCCCCCCCCCC(=O)NCCC[C@@H]1NC(=O)CNC(=O)[C@@H](NC(=O)[C@H](CC(=O)O)NC(=O)[C@H](CC(N)=O)NC(=O)[C@H](Cc2c[nH]c3ccccc23)NC(=O)CCCCCCCCCC)[C@@H](C)OC(=O)[C@H](CC(=O)c2ccccc2N)NC(=O)[C@H]([C@H](C)CC(=O)O)NC(=O)[C@@H](CO)NC(=O)CNC(=O)[C@H](CC(=O)O)NC(=O)[C@@H](C)NC(=O)[C@H](CC(=O)O)NC1=O [Compound 17],8 µg/mL,94 mg/kg,8 µg/mL,4 µg/mL,0.25 µg/mL,8 µg/mL,14 mm,20 mm,13 mm,> 35 mg/kg × 2,8 µg/mL,4 µg/mL,1 µg/mL,17 mm,0.125 µg/mL,> 200 mg/kg × 2,2.85 mg/kg × 2
CCCCC=CCCCCCCCC(=O)N[C@@H](Cc1c[nH]c2ccccc12)C(=O)N[C@@H](CC(N)=O)C(=O)N[C@@H](CC(=O)O)C(=O)N[C@@H]1C(=O)NCC(=O)N[C@@H](CCCN)C(=O)N[C@@H](CC(=O)O)C(=O)N[C@H](C)C(=O)N[C@@H](CC(=O)O)C(=O)NCC(=O)N[C@H](CO)C(=O)N[C@@H]([C@H](C)CC(=O)O)C(=O)N[C@@H](CC(=O)c2ccccc2N)C(=O)O[C@@H]1C [Compound 12],2 µg/mL,450 mg/kg,1 µg/mL,1 µg/mL,0.5 µg/mL,2 µg/mL,20 mm,30 mm,19 mm,3.28 mg/kg × 2,2 µg/mL,2 µg/mL,1 µg/mL,22 mm,0.5 µg/mL,75 mg/kg × 2,0.134 mg/kg × 2
CCCCCCCCCCCCCCC(=O)N[C@@H](Cc1c[nH]c2ccccc12)C(=O)N[C@@H](CC(N)=O)C(=O)N[C@@H](CC(=O)O)C(=O)N[C@@H]1C(=O)NCC(=O)N[C@@H](CCCN)C(=O)N[C@@H](CC(=O)O)C(=O)N[C@H](C)C(=O)N[C@@H](CC(=O)O)C(=O)NCC(=O)N[C@H](CO)C(=O)N[C@@H]([C@H](C)CC(=O)O)C(=O)N[C@@H](CC(=O)c2ccccc2N)C(=O)O[C@@H]1C [Compound 9],2 µg/mL,56.2 mg/kg,0.25 µg/mL,1 µg/mL,1 µg/mL,4 µg/mL,19 mm,24 mm,19 mm,8.3 mg/kg × 2,2 µg/mL,2 µg/mL,1 µg/mL,20 mm,0.06 µg/mL,> 200 mg/kg × 2,–
